#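 Cells were grown in 96-well plates and exposed to each compound for 48 hours at five concentrations; endpoints were interpolated linearly between bracketing concentrations, or set to the highest concentration if not reached. The concentration for 50% growth inhibition is given as GI50.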 Calls of active or inactive are those of the source. Cut-off read from the data, not from the text of the source: active = GI50 up to about 1.1 µM and inactive = higher.
# How the values were obtained:
# Assay in all cases: NCI tumour cell line growth inhibition, 48 h
# [1] = tested on: M19-MEL
# [2] = tested on: SK-MEL-2
# [3] = tested on: HOP-62
# [4] = tested on: NCI-H460
# [5] = tested on: OVCAR-5
# [6] = tested on: BT-549
# [7] = tested on: EKVX
# [8] = tested on: HOP-92
# [9] = tested on: UACC-257
# [10] = tested on: M14
# [11] = tested on: SF-539
# [12] = tested on: MCF7
# [13] = tested on: SF-268
# [14] = tested on: OVCAR-8
# [15] = tested on: HT-29
# [16] = tested on: Hs-578T
# [17] = tested on: CCRF-CEM
# [18] = tested on: MDA-MB-435
# [19] = tested on: K562
# [20] = tested on: NCI/ADR-RES
Structure (SMILES),GI50 [1],GI50 [2],GI50 [3],GI50 [4],GI50 [5],GI50 [6],GI50 [7],GI50 [8],GI50 [9],GI50 [10],GI50 [11],GI50 [12],GI50 [13],GI50 [14],GI50 [15],GI50 [16],GI50 [17],GI50 [18],GI50 [19],GI50 [20]
N=C(N)NS(=O)(=O)c1ccc(NC(=O)c2cccc3c(O)c4ccccc4nc23)cc1,> 100 µM (inactive),> 100 µM (inactive),> 78.5 µM (inactive),> 100 µM (inactive),99.3 µM (inactive),> 100 µM (inactive),> 100 µM (inactive),56.2 µM (inactive),> 100 µM (inactive),> 100 µM (inactive),> 78.3 µM (inactive),> 100 µM (inactive),> 100 µM (inactive),71.1 µM (inactive),> 100 µM (inactive),> 100 µM (inactive),28.9 µM (inactive),> 100 µM (inactive),44 µM (inactive),> 100 µM (inactive)
CCOC(=O)Cn1c2ccccc2c(=O)c2cc(C)c(C)c(C#N)c21,> 100 µM (inactive),> 100 µM (inactive),40.7 µM (inactive),> 100 µM (inactive),> 100 µM (inactive),–,> 100 µM (inactive),21.8 µM (inactive),> 100 µM (inactive),–,> 100 µM (inactive),–,> 100 µM (inactive),84.3 µM (inactive),> 100 µM (inactive),–,> 100 µM (inactive),–,–,–
Nc1c2ccccc2nc2nccnc12,> 100 µM (inactive),> 100 µM (inactive),> 100 µM (inactive),> 100 µM (inactive),> 100 µM (inactive),–,38.4 µM (inactive),> 100 µM (inactive),> 100 µM (inactive),> 100 µM (inactive),> 100 µM (inactive),–,> 100 µM (inactive),> 100 µM (inactive),> 100 µM (inactive),–,> 100 µM (inactive),–,> 100 µM (inactive),–
CC(=O)OCC1OC(n2c(=O)n(-c3ccccc3)c(=O)c3cc(Br)cc(Br)c32)C(OC(C)=O)C(OC(C)=O)C1OC(C)=O (configuration not stated),> 100 µM (inactive),> 100 µM (inactive),88.7 µM (inactive),> 100 µM (inactive),> 100 µM (inactive),–,> 100 µM (inactive),> 100 µM (inactive),> 100 µM (inactive),> 100 µM (inactive),> 100 µM (inactive),–,> 100 µM (inactive),> 100 µM (inactive),> 100 µM (inactive),–,> 100 µM (inactive),–,> 100 µM (inactive),–
Cc1cc(C)c2c(c1)N[S@@](=O)S2,21.7 µM (inactive),22.3 µM (inactive),57.9 µM (inactive),21.8 µM (inactive),30.6 µM (inactive),–,51.5 µM (inactive),45.8 µM (inactive),16.6 µM (inactive),17 µM (inactive),26.1 µM (inactive),–,17.9 µM (inactive),17.7 µM (inactive),20.2 µM (inactive),–,21.9 µM (inactive),–,26.4 µM (inactive),–
Cc1ccccc1C1OC(=O)c2ccc3ccccc3c21 (configuration not stated),3.27 µM (inactive),2.25 µM (inactive),0.442 µM (active),3.23 µM (inactive),8.57 µM (inactive),–,7.4 µM (inactive),10.8 µM (inactive),4.62 µM (inactive),2.97 µM (inactive),3.27 µM (inactive),–,6.97 µM (inactive),3.12 µM (inactive),4.22 µM (inactive),–,4.21 µM (inactive),–,3.07 µM (inactive),–
CSc1ccc(N2C(=O)C3c4[nH]c5ccccc5c4C4CCC(C(C)(C)C)CC4C3C2=O)cc1 (configuration not stated),31.9 µM (inactive),17.6 µM (inactive),12.2 µM (inactive),14.1 µM (inactive),48.3 µM (inactive),–,20.7 µM (inactive),11.3 µM (inactive),46.8 µM (inactive),27.5 µM (inactive),18.3 µM (inactive),–,12.4 µM (inactive),12.1 µM (inactive),21.8 µM (inactive),–,8.49 µM (inactive),–,15.9 µM (inactive),–
CC1=C(C)CC2(CCCCC2=O)[S+]([O-])C1 (configuration not stated),> 100 µM (inactive),> 100 µM (inactive),> 100 µM (inactive),> 100 µM (inactive),> 100 µM (inactive),–,> 100 µM (inactive),> 100 µM (inactive),> 100 µM (inactive),> 100 µM (inactive),> 100 µM (inactive),–,> 100 µM (inactive),> 100 µM (inactive),> 100 µM (inactive),–,> 100 µM (inactive),–,> 100 µM (inactive),–
C[Si](C)(C)/C(Br)=C\CCN1C(=O)CCC1O (configuration not stated),> 100 µM (inactive),> 100 µM (inactive),–,> 100 µM (inactive),> 100 µM (inactive),–,> 100 µM (inactive),91.4 µM (inactive),> 100 µM (inactive),> 100 µM (inactive),> 100 µM (inactive),–,> 100 µM (inactive),> 100 µM (inactive),> 100 µM (inactive),–,> 100 µM (inactive),–,> 100 µM (inactive),–
C/C(CC(=O)Nc1ccc(NC(=O)/C(C)=N/NS(=O)(=O)c2ccc(C)cc2)cc1)=N\NS(=O)(=O)c1ccc(C)cc1,> 100 µM (inactive),> 100 µM (inactive),> 100 µM (inactive),> 100 µM (inactive),> 100 µM (inactive),–,> 100 µM (inactive),> 100 µM (inactive),> 100 µM (inactive),> 100 µM (inactive),> 100 µM (inactive),–,> 100 µM (inactive),> 100 µM (inactive),> 100 µM (inactive),–,> 10 µM (inactive),–,> 100 µM (inactive),–
Brc1cc2c(cc1Br)CN(c1ccccc1)C2,> 100 µM (inactive),> 100 µM (inactive),> 100 µM (inactive),> 100 µM (inactive),> 100 µM (inactive),–,> 100 µM (inactive),41.5 µM (inactive),> 100 µM (inactive),> 100 µM (inactive),> 100 µM (inactive),–,> 100 µM (inactive),> 100 µM (inactive),> 100 µM (inactive),–,> 100 µM (inactive),–,80 µM (inactive),–
CCc1cc2c(O)c(c1)Cc1cc(CC)cc(c1O)Cc1cc(CC)cc(c1O)Cc1cc(CC)cc(c1O)Cc1cc(CC)cc(c1O)Cc1cc(CC)cc(c1O)Cc1cc(CC)cc(c1O)C2,> 100 µM (inactive),> 100 µM (inactive),> 100 µM (inactive),> 100 µM (inactive),> 100 µM (inactive),–,> 100 µM (inactive),44 µM (inactive),> 100 µM (inactive),> 100 µM (inactive),> 100 µM (inactive),–,> 100 µM (inactive),> 100 µM (inactive),> 100 µM (inactive),–,> 100 µM (inactive),–,> 10 µM (inactive),–
COC(=O)Cc1nc2ccccc2o1,30.5 µM (inactive),65.8 µM (inactive),> 100 µM (inactive),80.5 µM (inactive),45.2 µM (inactive),–,> 100 µM (inactive),> 100 µM (inactive),47 µM (inactive),51.6 µM (inactive),72.3 µM (inactive),–,> 100 µM (inactive),55.5 µM (inactive),90.8 µM (inactive),–,44.3 µM (inactive),–,32.4 µM (inactive),–
N=C(N)NS(=O)(=O)c1ccc(NC(=O)c2cccc3c(Nc4ccc(S(N)(=O)=O)cc4)c4ccccc4nc23)cc1,> 100 µM (inactive),> 100 µM (inactive),> 100 µM (inactive),> 100 µM (inactive),> 100 µM (inactive),–,> 100 µM (inactive),> 100 µM (inactive),> 100 µM (inactive),> 100 µM (inactive),> 100 µM (inactive),–,> 100 µM (inactive),> 100 µM (inactive),> 100 µM (inactive),–,> 100 µM (inactive),–,> 100 µM (inactive),–
Brc1ccc2c(C3CN[C@@H](c4c[nH]c5cc(Br)ccc45)CN3)c[nH]c2c1 (some centres not stated),6.78 µM (inactive),3.02 µM (inactive),3.94 µM (inactive),1.3 µM (inactive),2.48 µM (inactive),–,8.97 µM (inactive),1.66 µM (inactive),11.1 µM (inactive),2.55 µM (inactive),3.99 µM (inactive),–,4.78 µM (inactive),4.23 µM (inactive),2.79 µM (inactive),–,2.65 µM (inactive),–,1.65 µM (inactive),–
c1ccc(C2OC3(CCC[C@H]4C[C@H]43)O[C@H]2c2ccccc2)cc1 (some centres not stated),32.2 µM (inactive),21.5 µM (inactive),56.1 µM (inactive),39.8 µM (inactive),60.8 µM (inactive),–,32.8 µM (inactive),27.3 µM (inactive),30.9 µM (inactive),43.9 µM (inactive),> 100 µM (inactive),–,73.8 µM (inactive),48 µM (inactive),31.3 µM (inactive),–,22.2 µM (inactive),–,22.7 µM (inactive),–
CC1C=CC(O)[C@]2(CO)CC3(CCC12)OCCO3 (some centres not stated),> 100 µM (inactive),> 100 µM (inactive),> 100 µM (inactive),> 100 µM (inactive),> 100 µM (inactive),–,> 100 µM (inactive),> 100 µM (inactive),> 100 µM (inactive),> 100 µM (inactive),> 100 µM (inactive),–,> 100 µM (inactive),> 100 µM (inactive),> 100 µM (inactive),–,> 100 µM (inactive),–,> 100 µM (inactive),–

# Source: ChEMBL document CHEMBL1201862, “PubChem BioAssay data set” (2004)
